Laboratory results published in patent US20250144067A1, “PERSONALIZED STARVATION THERAPY FOR CANCER” (Faeth Therapeutics, Inc., priority 2021, published 2025).
Read-outs that look alike come from different tables or passages of the source. Ends that are not written are not given here.

Assays:
[1] = tested on: NCI-H292 lung cancer cells; test: FDA drug screening, complete media vs cholesterol-free media without statin (TABLE 1); type: cell-based, human
[2] = tested on: NCI-H292 lung cancer cells; test: FDA drug screening, complete media vs cholesterol-free media with simvastatin (TABLE 2); type: cell-based, human
[3] = Complete minus Cholesterol-free, greater than 0 enhanced anti-cancer activity, about 0 neutral, below 0 antagonist
[4] = NCI-H292 cells, FDA drug library screen, cholesterol-free media without statin
[5] = NCI-H292 cells, FDA drug library screen, complete media
[6] = NCI-H292 cells, FDA drug library screen, cholesterol-free media with simvastatin 0.04 μM
[7] = complete media vs cholesterol-free media + simvastatin (0.04 μM), >0 enhanced anti-cancer activity, about 0 neutral, <0 antagonist
[8] = NCI-H292 cells, cholesterol-free media without statin
[9] = complete vs cholesterol-free media, […]
[10] = NCI-H292 cells, drug in complete media
[11] = complete media vs cholesterol-free media + simvastatin (0.04 μM), […]
[12] = complete media minus cholesterol-free media + simvastatin, >0 enhanced anti-cancer activity, about 0 neutral, <0 antagonist
[13] = Complete minus Cholesterol-free, greater than 0 enhanced anti-cancer activity, about 0 neutral, below 0 antagonists
[14] = NCI-H292 cells in cholesterol-free media without statin
[15] = NCI-H292 cells in complete media
[16] = NCI-H292 cells, cholesterol-free media with simvastatin 0.04 μM, FDA drug library screen (TABLE 2)
[17] = NCI-H292 cells, complete media, FDA drug library screen (TABLE 2)
[18] = complete media minus cholesterol-free media + simvastatin (0.04 μM), >0 enhanced anti-cancer activity, about 0 neutral, <0 antagonist
[19] = complete vs cholesterol-free media, greater than 0 enhanced anti-cancer activity, about 0 neutral, below 0 antagonists
[20] = NCI-H292 cells, drug in cholesterol-free media with simvastatin 0.04 μM
[21] = NCI-H292 cells, FDA library drug in cholesterol-free media with simvastatin 0.04 μM
[22] = NCI-H292 cells, FDA library drug in complete media
[23] = Complete minus Cholesterol-free, >0 enhanced anti-cancer activity, about 0 neutral, <0 antagonist

Molecule: NCCC(O)(P(=O)([O-])O)P(=O)([O-])O.O.O.O.O.O.[Na+].[Na+] [Pamidronate (disodium pentahydrate)]
- Difference [1, 3]: −0.12
- Cholesterol-free [1, 4]: 1.305
- Complete [1, 5]: 1.183
- Cholesterol-free media + simvastatin (0.04 μM) [2, 6]: 1.169
- Complete Media [2, 5]: 1.009
- Difference [2, 7]: −0.16

Molecule: Angiotensin III (TFA) (RVYIHPF; also: TFA salt; UniProt P01019 26-32, looked up)
- Cholesterol-free [1, 8]: 1.338
- Complete ([1]; NCI-H292 cells, complete media): 0.9878
- Difference [1, 9]: −0.35
- Complete Media [2, 10]: 0.8125
- Difference [2, 11]: −0.20

Molecule: Benztropine (mesylate)
- Cholesterol-free [1]: 0.859
- Complete [1]: 0.7883
- Difference [1]: −0.07
- Cholesterol-free media + simvastatin (0.04 μM) [2]: 0.7872
- Complete Media [2]: 0.8586
- Difference [2]: 0.07

Molecule: OCc1ccccc1 [Benzyl alcohol]
- Difference [1, 3]: −0.14
- Cholesterol-free [1, 4]: 1.033
- Complete [1, 5]: 0.8945
- Cholesterol-free media + simvastatin (0.04 μM) [2, 6]: 0.8765
- Complete Media [2, 5]: 1.062
- Difference [2, 12]: 0.19

Molecule: Eprosartan (mesylate)
- Difference [1, 13]: −0.55
- Cholesterol-free [1, 14]: 1.415
- Complete [1, 15]: 0.8697
- Cholesterol-free media + simvastatin (0.04 μM) [2, 16]: 0.8775
- Complete Media [2, 17]: 0.8724
- Difference [2, 18]: −0.01

Molecule: CCN1CCN(C(=O)N[C@@H](C(=O)N[C@@H]2C(=O)N3C(C(=O)O)=C(CSc4nnnn4C)CS[C@H]23)c2ccc(O)cc2)C(=O)C1=O [Cefoperazone]
- Cholesterol-free ([1]; NCI-H292 cells, cholesterol-free media without statin, FDA drug library screen): 0.8233
- Complete ([1]; NCI-H292 cells, complete media, FDA drug library screen): 1.132
- Difference ([1]; complete vs cholesterol-free media, >0 enhanced anti-cancer activity, about 0 neutral, <0 antagonist): 0.31
- Cholesterol-free media + simvastatin (0.04 μM) [2, 6]: 1.061
- Complete Media [2, 5]: 1.748
- Difference [2, 12]: 0.69

Molecule: CC1(C)S[C@@H]2[C@H](NC(=O)[C@H](N)c3ccccc3)C(=O)N2[C@H]1C(=O)[O-].[Na+] [Ampicillin (sodium)]
- Cholesterol-free [1, 8]: 1.356
- Complete ([1]; NCI-H292 cells, complete media): 0.9032
- Difference [1, 19]: −0.45
- Cholesterol-free media + simvastatin (0.04 μM) [2, 20]: 1.087
- Complete Media [2, 10]: 0.8623
- Difference [2, 7]: −0.22

Molecule: CCOC(=O)[C@@H](N)Cc1ccc(-c2cc(O[C@H](c3ccc(Cl)cc3-n3ccc(C)n3)C(F)(F)F)nc(N)n2)cc1 [Telotristat etiprate]
- Difference [1, 13]: −0.51
- Cholesterol-free [1, 14]: 1.323
- Complete [1, 15]: 0.8145
- Cholesterol-free media + simvastatin (0.04 μM) [2, 6]: 1.173
- Complete Media [2, 5]: 1.074
- Difference [2, 7]: −0.10

Molecule: CCCCC[C@H](O)CC[C@@H]1[C@H]2Cc3cccc(OCC(=O)O)c3C[C@H]2C[C@H]1O [Treprostinil]
- Difference [1, 13]: −0.50
- Cholesterol-free [1, 14]: 1.45
- Complete [1, 15]: 0.9512
- Cholesterol-free media + simvastatin (0.04 μM) [2, 21]: 1.177
- Complete Media [2, 22]: 0.8507
- Difference [2, 7]: −0.33

Molecule: NC(=O)[C@@H]1C[C@]2(NC(=O)NC2=O)c2cc(F)ccc2O1 [Fidarestat]
- Cholesterol-free [1]: 1.491
- Complete [1]: 0.686
- Difference [1]: −0.80
- Cholesterol-free media + simvastatin (0.04 μM) [2]: 1.63
- Complete Media [2]: 1.736
- Difference [2]: 0.11

Molecule: CNCCc1ccccn1.CS(=O)(=O)O.CS(=O)(=O)O [Betahistine (mesylate)]
- Cholesterol-free [1, 8]: 1.235
- Complete ([1]; NCI-H292 cells, complete media): 0.8713
- Difference [1, 19]: −0.36
- Cholesterol-free media + simvastatin (0.04 μM) [2, 16]: 1.015
- Complete Media [2, 17]: 1.025
- Difference [2, 18]: 0.01

Molecule: CC(/C=C1\SC(=S)N(CC(=O)O)C1=O)=C\c1ccccc1 [Epalrestat]
- Difference [1, 23]: −0.29
- Cholesterol-free [1, 8]: 1.235
- Complete ([1]; NCI-H292 cells, complete media): 0.9425
- Cholesterol-free media + simvastatin (0.04 μM) [2, 6]: 0.9966
- Complete Media [2, 5]: 0.8579
- Difference [2, 7]: −0.14

Molecule: CCC[S+]([O-])c1ccc2[nH]c(NC(=O)OC)nc2c1 (centres unmarked) [Albendazole sulfoxide]
- Cholesterol-free [1, 8]: 1.467
- Complete ([1]; NCI-H292 cells, complete media): 1.005
- Difference [1, 9]: −0.46
- Cholesterol-free media + simvastatin (0.04 μM) [2, 20]: 1.376
- Complete Media [2, 10]: 1.125
- Difference [2, 11]: −0.25

Molecule: NC(N)=O [Urea]
- Difference [1, 23]: −0.20
- Cholesterol-free [1, 8]: 1.334
- Complete ([1]; NCI-H292 cells, complete media): 1.138
- Cholesterol-free media + simvastatin (0.04 μM) [2, 21]: 1.928
- Complete Media [2, 22]: 1.641
- Difference [2, 7]: −0.29
